Assay type in all cases: binding
In assay [1] the target is dopamine D2-receptors (Rattus norvegicus, UniProt P61169). The experiment in a line: affinity for dopamine D2-receptors by displacement experiments with [3H]-spiperone (rat striatum membranes). To be noted: for Ki: [3H]-spiperone, high-affinity form of the dopamine receptor; for α2-IC50 / D2-Ki: relative affinity for dopamine-D2 receptors compared with α2-adrenoceptors, the higher, the higher the D2/α2 selectivity.

Assay [2] deals with T1, serotonin-1A(5-HT1A) receptors (Rattus norvegicus, UniProt P19327).
T1 construct: The frontal cortex was dissected out; from tissue; host or cells: rat frontal cortex homogenate (Chbb:Thom strain)
T1 sequence (P19327 1-422): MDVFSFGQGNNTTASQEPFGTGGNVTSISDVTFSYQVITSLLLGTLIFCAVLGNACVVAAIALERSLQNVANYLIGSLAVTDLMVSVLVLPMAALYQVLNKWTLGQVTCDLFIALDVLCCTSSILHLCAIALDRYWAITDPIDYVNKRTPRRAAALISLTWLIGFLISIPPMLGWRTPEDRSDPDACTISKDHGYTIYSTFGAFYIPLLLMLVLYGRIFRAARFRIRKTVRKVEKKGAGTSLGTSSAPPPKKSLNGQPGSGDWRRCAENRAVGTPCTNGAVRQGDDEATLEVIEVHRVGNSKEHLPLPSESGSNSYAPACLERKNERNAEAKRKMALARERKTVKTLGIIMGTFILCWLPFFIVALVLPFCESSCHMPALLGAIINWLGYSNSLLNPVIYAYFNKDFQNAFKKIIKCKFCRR
The experiment in a line: affinity for serotonin-1A (5-HT1A) receptors by displacement experiments with [3H]-8-OH-DPAT (rat frontal cortex). To be noted: [3H]-8-OH-DPAT; rat frontal cortex; read-out: 5-HT1A-Ki. As for the experimental part: 3. […] (Method of S. J. Peroutka, J. Neurochem. 47, 529 (1986), modified according to H. Gozlan et al., J. Receptor Research 7. 195 (1987))
A male rat (Chbb:Thom strain weighing about 200 g) was decapitated. The brain was removed and placed in ice-cold buffer (50 mmol/1 tris-HCl plus hydrochloric acid ad pH =7.4 at ambient temperature). The frontal cortex was dissected out; its moist weight was determined. It was homogenised in 40 times its volume of buffer (Polytron, position 6, 10 seconds), then centrifuged for 20 minutes at 45,000×g in the refrigerated centrifuge. The pellet was washed in 100 times its volume of buffer and centrifuged again as described above. The resulting pellet was resuspended in 40 times its volume of buffer and pre-incubated for 10 minutes at 37° C. Sixty times the volume of buffer were added and centrifuging was carried out as above. The resulting pellet was washed with 100 times the volume of buffer and centrifuged as above. The pellet was resuspended in buffer (0.8 ml/10 mg) and briefly homogenised in the Polytron. This homogenised tissue was cooled in ice until ready for incubation.
Incubation was stopped by rapid filtering through Whatman GF/B filters; rinsing was carried out twice, each time with 5 ml of ice cold buffer (Filter Prep, Messrs. Ismatec). The radioactivity of the filters was determined by liquid scintillation measurement.
Specific binding is obtained from total binding minus non-specific binding.

Assay [3] addresses T2, dopamine D1-receptors (Rattus norvegicus, UniProt P18901).
T2 construct: The striata were dissected out, weighed and homogenised in 25 volumes of tris buffer; from tissue; host or cells: rat striatum membranes (Chbb:Thom strain), prepared as for the D2 assay
The experiment in a line: affinity for dopamine D1-receptors by displacement experiments with [3H]-Sch 23390. As for the experimental part: Male rats (of the Chbb:Thom strain weighing about 200 g) were killed by a blow to the back of the neck. The brains were removed and dissected on ice. The striata were dissected out, weighed and homogenised in 25 volumes of tris buffer (50 mM tris-HCl, 1 mM EDTA, 5 mM MgCl2 and 1 mM ascorbic acid) for 30 seconds in an Ultra-Turrax at maximum speed, followed by 10 cycles in a Potter-Elvehjem at 1400 rpm. The pellet obtained after centrifuging at 50,000×g at 4° C. for 15 minutes was again taken up in 25 ml of tris buffer and centrifuged under the above conditions. The supernatant was discarded and the pellet obtained was incubated in 25 ml of tris buffer at 37° C. for 30 minutes and then centrifuged again at 50,000×g at 4° C. for 15 minutes. Finally, the pellet obtained was mixed with tris buffer to obtain a homogenate dilution of 1:500 (based on the weight of the striata).
Displacement curves were obtained from the data using the TOPFIT programming package (G. Heinzel in "Pharmacokinetics During Drug Development: Data Analysis and Evaluation Techniques", G. Bozler and J. M. van Rossum Eds., G. Fischer Verlag, Stuttgart 1982, 207).
7. Determining the affinity for dopamine D1-receptors by displacement experiments with [^3 H1-Sch 23390
The membrane preparation and data analysis were carried out as described for determining the affinity for dopamine D2 - receptors.
1 ml aliquots of the membrane preparation were incubated for 1 hour at ambient temperature with 1 ml of a solution of 0.25 nM [^3 H]-Sch 23390 (2.44 TBq/mmol, Messrs. DuPont NEN) and with increasing concentrations of the test substance (10^-11 to 10^-4 M). Incubation was ended by the addition of 5 ml of ice cold tris buffer and filtration through Whatman GF/B filters. The filters were washed twice, each time with 5 ml of ice cold buffer. The radioactivity of the filters was determined by liquid scintillation measurement in Instagel(R) (Messrs. Canberra Packard).
The non-specific binding was determined in the presence of 10^-6 M (-)-butaclamol (Research Biochemicals Inc.).

SMILES strings stand for the structures.

T2 sequence (P18901 whole entry): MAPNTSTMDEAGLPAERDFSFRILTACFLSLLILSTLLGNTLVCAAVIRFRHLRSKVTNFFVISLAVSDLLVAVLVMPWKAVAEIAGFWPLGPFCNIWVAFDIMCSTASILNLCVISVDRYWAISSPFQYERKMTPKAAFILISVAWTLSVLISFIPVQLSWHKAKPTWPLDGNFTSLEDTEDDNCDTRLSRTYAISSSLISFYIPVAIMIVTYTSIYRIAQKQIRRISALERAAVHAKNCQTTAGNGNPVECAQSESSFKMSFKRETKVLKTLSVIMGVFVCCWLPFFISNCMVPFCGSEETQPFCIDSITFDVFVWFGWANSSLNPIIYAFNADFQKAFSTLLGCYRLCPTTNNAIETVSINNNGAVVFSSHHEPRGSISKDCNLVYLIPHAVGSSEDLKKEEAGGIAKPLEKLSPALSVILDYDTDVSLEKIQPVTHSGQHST
dopamine D2-receptors, sequence (P61169 whole entry): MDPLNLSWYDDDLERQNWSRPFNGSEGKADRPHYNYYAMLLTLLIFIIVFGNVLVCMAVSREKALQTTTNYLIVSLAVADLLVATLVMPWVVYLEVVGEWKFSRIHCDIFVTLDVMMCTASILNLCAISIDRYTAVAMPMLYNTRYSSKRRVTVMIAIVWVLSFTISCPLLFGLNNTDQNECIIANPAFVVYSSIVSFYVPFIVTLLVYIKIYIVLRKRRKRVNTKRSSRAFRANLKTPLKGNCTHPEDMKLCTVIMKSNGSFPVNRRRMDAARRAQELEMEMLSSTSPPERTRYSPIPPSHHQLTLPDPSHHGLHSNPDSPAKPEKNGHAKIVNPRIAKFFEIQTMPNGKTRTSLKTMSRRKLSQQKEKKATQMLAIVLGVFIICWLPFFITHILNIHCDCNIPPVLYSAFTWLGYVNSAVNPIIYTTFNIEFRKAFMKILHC

The term Ki denotes the equilibrium dissociation constant of an inhibitor or competing ligand from its target. For `N#Cc1ccc(C=CCN2CCc3nc(N)sc3CC2)cc1` [Example 14b, 2-Amino-6-(3-(4-cyano-phenyl)allyl)-4,5,7,8-tetrahydro-6H-thiazolo[5,4-d]azepine], in assay [1], the Ki was found to be 2.6 nM and the “α2-IC50 / D2-Ki” value was 192. The Ki in assay [2] is 7800 nM.
As for `C=CCN1CCc2nc(N)sc2CC1` [Compound A, reference compound], the results for the inhibition constant Ki in assay [3], in assay [1] and in assay [2] were 12000 nM, 5 nM and 4690 nM, respectively. Also, the “α2-IC50 / D2-Ki” value in assay [1] was determined as 4.8.
With `Nc1nc2c(s1)CCN(CC=Cc1cccc(OCc3ccccc3)c1)CC2` [Example 4y, 2-Amino-6-(3-(3-benzyloxy-phenyl)allyl)-4,5,7,8-tetrahydro-6H-thiazolo[5,4-d]azepine], the Ki in assay [3] came out at 1500 nM; in assay [1], 0.73 nM; in assay [2], 23000 nM. The “α2-IC50 / D2-Ki” value in assay [1] was 410.
On to `Nc1nc2c(s1)CCN(CC=Cc1cccc3ccccc13)CC2` [Example 4t, 2-Amino-6-(3-(1-naphthyl)allyl)-4,5,7,8-tetrahydro-6H-thiazolo[5,4-d]azepine], for which the figures for the Ki in assay [3], in assay [1] and in assay [2] were 210 nM, 3.1 nM and 350 nM, respectively. Moreover, in assay [1], the “α2-IC50 / D2-Ki” value is given as 148.
Turning to `Nc1nc2c(s1)CCN(Cc1ccc(Cl)cc1)CC2` [Compound B, reference compound], the Ki in assay [3] was 11000 nM; in assay [1], 13 nM. Besides, the “α2-IC50 / D2-Ki” value in assay [1] turned out to be 31.5.
Turning to `Nc1nc2c(s1)CCN(CC=Cc1cc3ccccc3cn1)CC2` [Example 24a, 2-Amino-6-(3-(3-isoquinolinyl)allyl)-4,5,7,8-tetrahydro-6H-thiazolo[5,4-d]azepine], the inhibition constant Ki in assay [3] is 3000 nM; in assay [1], 1.7 nM; in assay [2], 3500 nM. For the same molecule, the “α2-IC50 / D2-Ki” value in assay [1] stood at 529.
The like results for `Nc1nc2c(s1)CCN(CC=Cc1nccc3ccccc13)CC2` [Example 7a, 2-Amino-6-(3-(1-isoquinolinyl)allyl)-4,5,7,8-tetrahydro-6H-thiazolo[5,4-d]azepine] were, in that order, 180 nM, 0.92 nM, 1100 nM and 3370.
As for `Nc1nc2c(s1)CCN(CC=Cc1ccccc1N1CCCCC1)CC2` [Example 11p, 2-Amino-6-(3-(2-(1-piperidino)phenyl)-2-propen-1-yl)-4,5,7,8-tetrahydro-6H-thiazolo[5,4-d]azepine], the figures for the Ki in assay [3], in assay [1] and in assay [2] were 920 nM, 9.9 nM and 1770 nM, respectively. In addition, the “α2-IC50 / D2-Ki” value in assay [1] came to 303.
